Columns and labels:
[1] = test system: cell lines A549, HEK293 and MCF-7; experiment: Apoptosis level with pAntp chimeric peptide versions; assay type: cell-based, human; conditions: 40 μM, lines A549 and HEK 293, non-synchronized and synchronized
Description: FIG. 24. Effect of chimeric peptides containing a p16INK4a fragment on apoptosis level in non-synchronized and synchronized cell line A549. Peptide concentration is 40 µM. Y-axis—percentage of apoptotic bodies.
FIG. 25. Effect of chimeric peptides containing a p16INK4a fragment on apoptosis level in non-synchronized and synchronized HEK293 cell line. Peptide concentration is 40 µM. Y-axis—percentage of apoptotic bodies.
FIG. 26. Comparisons of cytotoxic effect of chimeric peptides pAntpp16 (1, 2) on HEK293 cell culture.
In the next phase of work, we assessed the dependence of the cytotoxic effect exerted by the chimeric test peptides with the peptide vector pAntp. An experiment to determine the level of apoptosis was carried out on the cell lines A549 (human, lung carcinoma), HEK293 (human, embryonic kidney) and MCF-7 (human, mammary adenocarcinoma). Cells were cultured by standard techniques in DMEM medium containing 10% of FSB. A part of the cells was previously synchronized using the method of double thymidine block and synchronization method with the depleted media (see “Experiment. Parts”). The chimeric test peptides pAntp-p16 (1 and 2) were added to the culture medium. As a negative control we used cells treated with the peptide pAntp_zam (FIGS. 24, 25).

[2] = test system: HEK293 cell line, non-synchronized and synchronized; experiment: Effect of pAntp chimeric peptide versions on cell cycle, HEK293; assay type: cell-based, human; conditions: 40 μM; for changes of the cell cycle phases: synchronized and nonsynchronized cells
Description: FIG. 22. Effect of chimeric peptide pAntp containing a p16INK4a fragment, on the cell cycle. A—non-synchronized cell line HEK293, B—cell line HEK293 synchronized in S-phase. Peptide concentration is 40 µM. The peptides are pAntp and three further peptides 1-p16, 2-p16, and 3-p16, wherein peptides 1-p16 and 2-p16 are synthetic peptides differing by the location of the 20 amino acids fragment of p16 relative to pAntp; and peptide 3-p16 is a genetically engineered peptide comprising a 50 amino acids insert of protein Antp.
We used three versions of the chimeric peptide containing p16INK4a active center and pAntp vector. These chimeric peptides differ by location of the active center relative to N-C termini of the molecule and the presence of an insertion of 44 amino acids ([…], SEQ ID NO: 9) for peptide 3 produced by genetic engineering method (Table 1).
In the study of the properties of these peptides we also investigated synchronized and nonsynchronized cell cultures. In a synchronized culture, the peptide was added at the time of sync block removal and in the nonsynchronized at a monolayer density (for adhesion cultures) of ~50%.

[3] = test system: HEK293 cell line synchronized in G0/G1 phase; experiment: Cell cycle phase analysis by flow cytofluorometry after sync block removal; assay type: cell-based, human; conditions: for antiproliferative effect on cell cycle: peptide added at sync block removal
Description: (§1) In experiments with cell lines we evaluated the distribution of cells according to the phases of the cell cycle and calculated the proliferation index. For analysis we used software FloMax 2.0 (built-in option of flow cytofluorimenter) and software Modfit LT 3.0 (FIGS. 7 and 8). We also carried out the determination of the proportion of cells entered the apoptosis based on size of “pre-G1-hypodiploid” peak on DNA histogram (FIG. 8 (B)). Experiments were performed both on cell lines synchronized in phase G1/S, and on non-synchronized cell lines Raji, Jurkatt, A549, HEK 293, MCF-7.
The study of the effects of peptides was conducted on transplantable cell cultures. In order to study alterations in the expression of specific intracellular regulators and in order to improve visualization of the experiments, the cells were pre-synchronized.
At the first stage of the evaluation of the obtained results, we investigated the effect of internalizable chimeric peptides with different active centers—p16INK4a and p21/CIP/KIP. The chimeric peptide to be studied was added at the moment of the sync block removal. Cell cycle analysis was performed every 2 hours for 24 hours after removal of the block.
We investigated chimeric peptides having p16INK4a active center and having different types of vectors, Tat and pAntp. […] As is seen from FIG. 18, plots of dependencies of the number of cells in the cell cycle phases are similar in appearance for the two types of peptide vectors carrying p16 fragment. In the control sample—synchronized cell culture without the addition of the study peptide, the number of cells in G0/G1-phase starts to decline as early as 2 hours after removal of the synch block, and 10 hours later we recorded the lowest number of cells in G0/G1-phase. S-phase in the control samples starts to increase 4-6 hours after sync block removal and reaches a maximum after 12 hours.

[4] = test system: cyclin B; experiment: Cyclin B mRNA expression by quantitative RT-PCR; assay type: cell-based, human
Description: FIG. 29. Study of cyclin B synthesis in HEK293 cell culture by adding peptide Tat_p16 (30 µMol). […] X-axis—incubation time (hours), Y-axis—abstract units.
It is known that the phosphorylation of pRb is an initiating step for activation of expression of cyclins A and B and for transition of cells from G1 into S phase of the cell cycle. Quantitative PCR method was used to study mRNA expression level of cyclin B when exposed to Tat_p16 peptide. For this purpose during experiment on synchronized culture with adding Tat_p16 chimeric peptide at a concentration of 40 µmol, we performed a parallel selection of cells from samples for RNA extraction, whereas a part of the cells served the determination of the cell cycle phases. Further processing of the material involved RNA isolation and quantitative PCR reaction setting (RT-PCR) carried out according to the protocol.

[5] = test system: cell lines HEK293 and A549; experiment: Cell cycle arrest by chemotherapeutics alone, preliminary experiments; assay type: cell-based, human; conditions: 100 nMol
Text: This concentration for all drugs was 100 nMol.

[6] = test system: HEK293 cell line; experiment: Apoptosis level (hypodiploid peak) in HEK293 culture; assay type: cell-based, human; conditions: synchronized culture
Description: FIG. 16. Mean apoptosis values for synchronized HEK293 cell culture in a series of experiments using internalized peptides with active centers p21 and p16. Incubation time with peptide is 24 hours. Concentration of peptides is 40 µMol. Y-axis—percentage of apoptotic particles.
FIG. 20. Mean apoptosis values in synchronized culture of HEK293 after addition of chimeric peptides Tat_p16 and pAntp p16. […] The peptides were added at the moment of synchronization block removal. The effect was evaluated after 24 hours.
FIG. 21. Change in the level of apoptosis in the cell culture depending on the incubation time with peptides Tat_p16 and pAntp_p16 for synchronized 293 cell line (A) and synchronized A549 cell line (B).
as §1

[7] = test system: HCT-116 cells xenograft; experiment: Anti-tumor activity in vivo, local injection, HCT-116 xenograft; design: species or system mice; conditions: 0.1 mg group, 28 days
Text: The tumor nodule of HCT-116 cells is characterized by a large in size and the presence of ulceration. In the control group, on day 28 of the experiment the average tumor volume reached 679 mm^3, 3 mice died during the experiment. In the test group, a lower rate of tumor growth was observed (FIG. 32), on day 28 of the experiment the average tumor volume was 225.4 mm^3, the number of dead animals in the experimental group was 2.

[8] = test system: A549 cells xenograft; experiment: Anti-tumor activity in vivo, local injection, A549 xenograft; conditions: 24 days
Text: 10 mice constituted the 1st treatment group. […] The experiment lasted 24 days.
In the experimental groups, we observed a reduced tumor growth and on day 6 after the begin of administration of the peptide there could be observed a significant reduction in tumor volume in experimental groups compared with the control ones (FIG. 32). The experiment lasted 24 days. During this time, we performed 10 injections of the chimeric peptide in the experimental groups. In the control group, on day 24 of the experiment, the average tumor volume in mice was 95.24 mm^3, one mouse died. In the first experimental group (administered dose of peptide—0.1 mg) average tumor volume was 39.29 mm^3, one mouse died.

[9] = after sync block removal, 40 μM

In the case of “pAntp_zam: control peptide with p16INK4a sequence (amino acids 82-102) with substitution of tyrosine by alanine at position 92 (RQIKIWFQNRRMKWKKDAAREGFLDALVVLHRAGAR; pAntp_zam, chimeric peptide; listed as Homo Sapiens) [reference compound]”, the “effect on the level of apoptosis” value [1] is reported as “not affected” and the “changes of the cell cycle phases” value [2] is reported as “do not differ from the control”.
In the case of “DAAREGFLDTLVVLHRAGARS YGRKKRRQRRRG (DAAREGFLDTLVVLHRAGARSYGRKKRRQRRRG; Tat_p16, chimeric peptide; listed as Homo Sapiens)”, the “time at which G0/G1 phase starts to decrease” value [3, 9] is reported as “simultaneously with G0/G1-phase in control sample”, the “time at which S-phase begins to increase” value [3, 9] is reported as 12 h and the “time of maximum S-phase” value [3, 9] is reported as 14 h. For the same molecule, the “time of maximum difference of cell cycle phases between control and test samples” value [3, 9] was “about 12 hours”, the “time of maximum difference of cell cycle phases between control and test samples” value ([3]; after sync block removal, 40 μM, listed as Tatp16) was 12 h and the “antiproliferative effect on cell cycle” value ([3]; 40 μM) was “arrest of G1-S transition”. For the same molecule, the “time at which increase in G2-phase occurs” value ([3]; same experiment as cyclin B RT-PCR) was 16 h, the “effect on expression of cyclin B” value ([4]; HEK293 synchronized in G0/G1, Tat_p16 40 μmol) was “inhibits the expression of B cyclin” and the “incubation time after which cyclin B expression level increases” value ([4]; control maximum at 12 hours) was 16 h.
With `O=c1[nH]cc(F)c(=O)[nH]1` [5-fluorouracil] the “cell cycle arrest phase” value [5] was “G0/G1-phase arrest”.
In the case of “pAntp_p16(1): chimeric peptide, p16INK4a fragment at C-terminus, pAntp at N-terminus (SEQ ID NO: 10), solid phase synthesis (RQIKIWFQNRRMKWKKDAAREGFLDTLVVLHRAGAR; pAntp_p16(1), chimeric peptide; listed as Homo Sapiens)”, the “effect on the level of apoptosis” value [1] is reported as “markedly increases”, the “changes of the cell cycle phases” value [2] is reported as “fails to induce the expected cytostatic effect” and the “anti-proliferative effect on cells” value ([2]; summary of HEK293 and A549 experiments) is reported as “does not have an anti-proliferative effect”.
`COc1cc([C@@H]2c3cc4c(cc3[C@@H](O[C@@H]3O[C@@H]5CO[C@@H](C)O[C@H]5[C@H](O)[C@H]3O)[C@H]3COC(=O)[C@H]23)OCO4)cc(OC)c1O` [Etoposide] was tested, and the “cell cycle arrest phase” value [5] was “S-phase arrest”.
YGRKKRRQRRRGPVKRRLDL [Tat_p21] was tested, and the “time of maximum difference of cell cycle phases between control and test samples” value [3, 9] was 10 to 12 h, the “time at which G2/M-phase level reaches a maximum value” ([3]; average) was 18 to 20 h and the “antiproliferative effect on cell cycle” value ([3]; 40 μM) was “arrest of transition of cells from S-phase in G2/M-phase”. For the same molecule, the “level of S-phase remaining over 14 hours of incubation” value ([3]; test sample, over 14 hours) was 65-70%, the “dependence of the level of apoptosis on the incubation time” value [6] was “has not been observed” and the “mean apoptosis values versus control samples” value ([6]; 24 hours, 40 μMol) was “no significant differences”.
In the case of `CC(=O)O[C@H]1C(=O)[C@@]2(C)[C@H]([C@H](OC(=O)c3ccccc3)[C@]3(O)C[C@H](OC(=O)[C@H](O)[C@@H](NC(=O)c4ccccc4)c4ccccc4)C(C)=C1C3(C)C)[C@]1(OC(C)=O)CO[C@@H]1C[C@@H]2O` [Taxol], the “cell cycle arrest phase” value [5] is reported as “G2/M-phase arrest”.
`CC[C@H](C)[C@H](NC(=O)[C@H](CCCCN)NC(=O)[C@@H](NC(=O)[C@H](CCC(N)=O)NC(=O)[C@H](CCCNC(=N)N)NC(=O)[C@H](CO)NC(=O)[C@H](CCCNC(=N)N)NC(=O)[C@H](C)NC(=O)CNC(=O)[C@H](C)NC(=O)[C@H](CCCNC(=N)N)NC(=O)[C@H](Cc1c[nH]cn1)NC(=O)[C@H](CC(C)C)NC(=O)[C@@H](NC(=O)[C@@H](NC(=O)[C@H](CC(C)C)NC(=O)[C@@H](NC(=O)[C@H](CC(=O)O)NC(=O)[C@H](CC(C)C)NC(=O)[C@H](Cc1ccccc1)NC(=O)CNC(=O)[C@H](CCC(=O)O)NC(=O)[C@H](CCCNC(=N)N)NC(=O)[C@H](C)NC(=O)[C@H](C)NC(=O)[C@@H](N)CC(=O)O)[C@@H](C)O)C(C)C)C(C)C)[C@@H](C)CC)C(=O)N[C@@H](Cc1c[nH]c2ccccc12)C(=O)N[C@@H](Cc1ccccc1)C(=O)N[C@@H](CCC(N)=O)C(=O)N[C@@H](CC(N)=O)C(=O)N[C@@H](CCCNC(=N)N)C(=O)N[C@@H](CCCNC(=N)N)C(=O)N[C@@H](CCSC)C(=O)N[C@@H](CCCCN)C(=O)N[C@@H](Cc1c[nH]c2ccccc12)C(=O)N[C@@H](CCCCN)C(=O)N[C@@H](CCCCN)C(=O)O` [pAntp_p16(2)] was tested, and the “number of dead animals” value [7] was 2, the mice died ([8]; 0.1 mg group) was “one” and the mice died ([8]; 0.2 mg group) was “no animals died”.
